≈ marks a conversion by molar mass, not a printed value.
Legend:
Assay in all cases: in vitro antibacterial evaluation, MIC by broth dilution
Assay type in all cases: cell-based
Escherichia coli = details: 18 hours at 35° C.
Streptococcus sp. = details: broth dilution, 18 hours at 35° C.
Procedure, shortened: (§1)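 MIC, the lowest antibiotic concentration preventing growth, was read across 64-0.06 μg/mL with 5×10^5 CFU/mL inoculum. Method followed NCCLS M7-A2 broth dilution using Mueller-Hinton II; Gram-positive strains covered recent methicillin-, penicillin- and/or vancomycin-resistant clinical isolates.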

Enterococcus sp. = details: broth dilution, 18 hours at 35° C.
Procedure, shortened: as §1

Staphylococcus sp. = details: broth dilution, 18 hours at 35° C.; for MIC Staphylococcus aureus (GC 1131): strain GC 1131; for MIC Staphylococcus aureus (ATCC 29213): strain ATCC 29213; for MIC Staphylococcus aureus (GC 3051): strain GC 3051; for MIC Staphylococcus aureus (GC 3053): strain GC 3053; for MIC Staphylococcus aureus (GC 4541): strain GC 4541; for MIC Staphylococcus aureus (GC 4542): strain GC 4542; for MIC Staphylococcus aureus (GC 4544): strain GC 4544; for MIC Staphylococcus aureus (GC 4545): strain GC 4545
Procedure, shortened: as §1

CC(C1CCCCC1)C1NC(=O)CNC(=O)C(CO)NC(=O)C(C(O)C2CNC(=N)N2C2OC(CO)C(O)C(O)C2O)NC(=O)C(C(O)C2CNC(=N)N2)NC(=O)C(Cc2ccc(OC3OC(CO)C(OC4OC5COC(c6ccccc6)OC5C(O)C4O)C(O)C3O)cc2)NC1=O (stereo not shown) [Example 201]
MIC Escherichia coli (ATCC 25922) (Escherichia coli): 16 µg/mL (≈ 11.5 µM) | MIC Escherichia coli (GC 4559) (Escherichia coli): 16 µg/mL (≈ 11.5 µM) | MIC Escherichia coli (GC 4560) (Escherichia coli): 0.25 µg/mL (≈ 0.18 µM) | MIC Streptococcus agalactiae (GC 4564) (Streptococcus sp.): <0.12 µg/mL | MIC Streptococcus pneumoniae (ATCC 6301) (Streptococcus sp.): <0.12 µg/mL | MIC Streptococcus pneumoniae (GC 1894) (Streptococcus sp.): <0.12 µg/mL | MIC Streptococcus pneumoniae (GC 4565) (Streptococcus sp.): <0.12 µg/mL | MIC Streptococcus pyogenes (GC 4563) (Streptococcus sp.): <0.12 µg/mL | MIC Streptococcus pneumoniae (ATCC 6301) (Streptococcus sp.; inoculum 5×10^5 CFU/mL, strain ATCC 6301): <0.12 µg/mL | MIC Streptococcus pneumoniae (GC 1894) (Streptococcus sp.; inoculum 5×10^5 CFU/mL, strain GC 1894): <0.12 µg/mL | MIC Streptococcus pyogenes (GC 4563) (Streptococcus sp.; inoculum 5×10^5 CFU/mL, strain GC 4563): <0.12 µg/mL | MIC Streptococcus agalactiae (GC 4564) (Streptococcus sp.; inoculum 5×10^5 CFU/mL, strain GC 4564): <0.12 µg/mL | MIC Streptococcus pneumoniae (GC 4565) (Streptococcus sp.; inoculum 5×10^5 CFU/mL, strain GC 4565): <0.12 µg/mL | MIC Enterococcus avium (GC 4558) (Enterococcus sp.): 1 µg/mL (≈ 0.72 µM) | MIC Enterococcus faecalis (ATCC 29212) (Enterococcus sp.): 1 µg/mL (≈ 0.72 µM) | MIC Enterococcus faecalis (GC 2242) (Enterococcus sp.): 1 µg/mL (≈ 0.72 µM) | MIC Enterococcus faecalis (GC 2691) (Enterococcus sp.): 1 µg/mL (≈ 0.72 µM) | MIC Enterococcus faecalis (GC 3059) (Enterococcus sp.): 1 µg/mL (≈ 0.72 µM) | MIC Enterococcus faecalis (GC 4552) (Enterococcus sp.): 1 µg/mL (≈ 0.72 µM) | MIC Enterococcus faecalis (GC 4553) (Enterococcus sp.): 1 µg/mL (≈ 0.72 µM) | MIC Enterococcus faecalis (GC 4554) (Enterococcus sp.): 1 µg/mL (≈ 0.72 µM) | MIC Enterococcus faecalis (GC 6189) (Enterococcus sp.): 1 µg/mL (≈ 0.72 µM) | MIC Enterococcus faecium (GC 2243) (Enterococcus sp.): 1 µg/mL (≈ 0.72 µM) | MIC Enterococcus faecium (GC 4556) (Enterococcus sp.): 1 µg/mL (≈ 0.72 µM) | MIC Enterococcus faecium (GC 4557) (Enterococcus sp.): 0.5 µg/mL (≈ 0.36 µM) | MIC Enterococcus faecalis (ATCC 29212) (Enterococcus sp.; inoculum 5×10^5 CFU/mL, strain ATCC 29212): 1 µg/mL (≈ 0.72 µM) | MIC Enterococcus faecalis (GC 2242) (Enterococcus sp.; inoculum 5×10^5 CFU/mL, strain GC 2242): 1 µg/mL (≈ 0.72 µM) | MIC Enterococcus faecium (GC 2243) (Enterococcus sp.; inoculum 5×10^5 CFU/mL, strain GC 2243): 1 µg/mL (≈ 0.72 µM) | MIC Enterococcus faecalis (GC 2691) (Enterococcus sp.; inoculum 5×10^5 CFU/mL, strain GC 2691): 1 µg/mL (≈ 0.72 µM) | MIC Enterococcus faecalis (GC 3059) (Enterococcus sp.; inoculum 5×10^5 CFU/mL, strain GC 3059): 1 µg/mL (≈ 0.72 µM) | MIC Enterococcus faecalis (GC 4552) (Enterococcus sp.; inoculum 5×10^5 CFU/mL, strain GC 4552): 1 µg/mL (≈ 0.72 µM) | MIC Enterococcus faecalis (GC 4553) (Enterococcus sp.; inoculum 5×10^5 CFU/mL, strain GC 4553): 1 µg/mL (≈ 0.72 µM) | MIC Enterococcus faecalis (GC 4554) (Enterococcus sp.; inoculum 5×10^5 CFU/mL, strain GC 4554): 1 µg/mL (≈ 0.72 µM) | MIC Enterococcus faecium (GC 4556) (Enterococcus sp.; inoculum 5×10^5 CFU/mL, strain GC 4556): 1 µg/mL (≈ 0.72 µM) | MIC Enterococcus faecium (GC 4557) (Enterococcus sp.; inoculum 5×10^5 CFU/mL, strain GC 4557): 0.5 µg/mL (≈ 0.36 µM) | MIC Enterococcus avium (GC 4558) (Enterococcus sp.; inoculum 5×10^5 CFU/mL, strain GC 4558): 1 µg/mL (≈ 0.72 µM) | MIC Enterococcus faecalis (GC 6189) (Enterococcus sp.; inoculum 5×10^5 CFU/mL, strain GC 6189): 1 µg/mL (≈ 0.72 µM) | MIC Staphylococcus aureus (GC 1131) (Staphylococcus sp.; inoculum 5×10^5 CFU/mL): 0.25 µg/mL (≈ 0.18 µM) | MIC Staphylococcus aureus (ATCC 29213) (Staphylococcus sp.): 0.25 µg/mL (≈ 0.18 µM) | MIC Staphylococcus aureus (GC 1131) (Staphylococcus sp.): 0.25 µg/mL (≈ 0.18 µM) | MIC Staphylococcus aureus (GC 3051) (Staphylococcus sp.): 0.5 µg/mL (≈ 0.36 µM) | MIC Staphylococcus aureus (GC 3053) (Staphylococcus sp.): 0.5 µg/mL (≈ 0.36 µM) | MIC Staphylococcus aureus (GC 4541) (Staphylococcus sp.): 0.5 µg/mL (≈ 0.36 µM) | MIC Staphylococcus aureus (GC 4542) (Staphylococcus sp.): 0.25 µg/mL (≈ 0.18 µM) | MIC Staphylococcus aureus-SMITH (GC 4543) (Staphylococcus sp.; strain GC 4543): 0.5 µg/mL (≈ 0.36 µM) | MIC Staphylococcus aureus (GC 4544) (Staphylococcus sp.): 0.25 µg/mL (≈ 0.18 µM) | MIC Staphylococcus aureus (GC 4545) (Staphylococcus sp.): 0.25 µg/mL (≈ 0.18 µM) | MIC Staphylococcus haemolyticus (GC 4546) (Staphylococcus sp.; strain GC 4546): 0.25 µg/mL (≈ 0.18 µM) | MIC Coagulase Negative Staphylococcus (GC 4547) (Staphylococcus sp.; strain GC 4547): 0.25 µg/mL (≈ 0.18 µM) | MIC Coagulase Negative Staphylococcus (GC 4548) (Staphylococcus sp.; strain GC 4548): 0.25 µg/mL (≈ 0.18 µM) | MIC Coagulase Negative Staphylococcus (GC 4549) (Staphylococcus sp.; strain GC 4549): 0.25 µg/mL (≈ 0.18 µM) | MIC Coagulase Negative Staphylococcus (GC 4551) (Staphylococcus sp.; strain GC 4551): 0.25 µg/mL (≈ 0.18 µM)

CC(c1ccccc1)C1NC(=O)CNC(=O)C(CO)NC(=O)C(C(O)C2CN(c3nc4ccccc4o3)C(=N)N2C2OC(CO)C(O)C(O)C2O)NC(=O)C(C(O)C2CNC(=Nc3nc4ccccc4o3)N2)NC(=O)C(Cc2ccc(OC3OC(CO)C(OC4OC(CO)C(O)C(O)C4O)C(O)C3O)cc2)NC1=O (stereo not drawn) [Example 93, Cyclo[glycyl-β-methylphenylalanyl-O-(4-O-hexopyranosylhexopyranosyl)tyrosyl-3-[2-(1,3-benzoxazol-2-ylimino)imidazolidin-4-yl]seryl-3-[1-(1,3-benzoxaxol-2-yl)-3-hexopyranosyl-2-iminoimidazolidin-4-yl]serylseryl]]
MIC Escherichia coli (ATCC 25922) (Escherichia coli): >128 µg/mL | MIC Escherichia coli (GC 4559) (Escherichia coli): >128 µg/mL | MIC Escherichia coli (GC 4560) (Escherichia coli): >128 µg/mL | MIC Streptococcus agalactiae (GC 4564) (Streptococcus sp.): >128 µg/mL | MIC Streptococcus pneumoniae (ATCC 6301) (Streptococcus sp.): >128 µg/mL | MIC Streptococcus pneumoniae (GC 1894) (Streptococcus sp.): 128 µg/mL (≈ 83.7 µM) | MIC Streptococcus pneumoniae (GC 4565) (Streptococcus sp.): >128 µg/mL | MIC Streptococcus pyogenes (GC 4563) (Streptococcus sp.): >128 µg/mL | MIC Streptococcus pneumoniae (ATCC 6301) (Streptococcus sp.; strain ATCC 6301): >128 µg/mL | MIC Streptococcus pneumoniae (GC 1894) (Streptococcus sp.; strain GC 1894): 128 µg/mL (≈ 83.7 µM) | MIC Streptococcus pyogenes (GC 4563) (Streptococcus sp.; strain GC 4563): >128 µg/mL | MIC Streptococcus agalactiae (GC 4564) (Streptococcus sp.; strain GC 4564): >128 µg/mL | MIC Streptococcus pneumoniae (GC 4565) (Streptococcus sp.; strain GC 4565): >128 µg/mL | MIC Enterococcus avium (GC 4558) (Enterococcus sp.; Enterococcus avium (GC 4558)): 128 µg/mL (≈ 83.7 µM) | MIC Enterococcus faecalis (ATCC 29212) (Enterococcus sp.; Enterococcus faecalis (ATCC 29212)): >128 µg/mL | MIC Enterococcus faecalis (GC 4552) (Enterococcus sp.; Enterococcus faecalis (GC 4552)): >128 µg/mL | MIC Enterococcus faecalis (GC 4553) (Enterococcus sp.; Enterococcus faecalis (GC 4553)): >128 µg/mL | MIC Enterococcus faecalis (GC 4554) (Enterococcus sp.; Enterococcus faecalis (GC 4554)): >128 µg/mL | MIC Enterococcus faecalis (GC 6189) (Enterococcus sp.; Enterococcus faecalis (GC 6189)): >128 µg/mL | MIC Enterococcus faecium (GC 2243) (Enterococcus sp.; Enterococcus faecium (GC 2243)): >128 µg/mL | MIC Enterococcus faecium (GC 4556) (Enterococcus sp.; Enterococcus faecium (GC 4556)): >128 µg/mL | MIC Enterococcus faecium (GC 4557) (Enterococcus sp.; Enterococcus faecium (GC 4557)): 128 µg/mL (≈ 83.7 µM) | MIC Enterococcus avium (GC 4558) (Enterococcus sp.): 128 µg/mL (≈ 83.7 µM) | MIC Enterococcus faecalis (ATCC 29212) (Enterococcus sp.): >128 µg/mL | MIC Enterococcus faecalis (GC 2242) (Enterococcus sp.): >128 µg/mL | MIC Enterococcus faecalis (GC 2691) (Enterococcus sp.): >128 µg/mL | MIC Enterococcus faecalis (GC 3059) (Enterococcus sp.): >128 µg/mL | MIC Enterococcus faecalis (GC 4552) (Enterococcus sp.): >128 µg/mL | MIC Enterococcus faecalis (GC 4553) (Enterococcus sp.): >128 µg/mL | MIC Enterococcus faecalis (GC 4554) (Enterococcus sp.): >128 µg/mL | MIC Enterococcus faecalis (GC 6189) (Enterococcus sp.): >128 µg/mL | MIC Enterococcus faecium (GC 2243) (Enterococcus sp.): >128 µg/mL | MIC Enterococcus faecium (GC 4556) (Enterococcus sp.): >128 µg/mL | MIC Enterococcus faecium (GC 4557) (Enterococcus sp.): 128 µg/mL (≈ 83.7 µM) | MIC Enterococcus faecalis (GC 2242) (Enterococcus sp.; strain GC 2242): >128 µg/mL | MIC Enterococcus faecalis (GC 2691) (Enterococcus sp.; strain GC 2691): >128 µg/mL | MIC Enterococcus faecalis (GC 3059) (Enterococcus sp.; strain GC 3059): >128 µg/mL | MIC Coagulase Negative Staphylococcus (GC 4547) (Staphylococcus sp.): >128 µg/mL | MIC Coagulase Negative Staphylococcus (GC 4548) (Staphylococcus sp.): >128 µg/mL | MIC Coagulase Negative Staphylococcus (GC 4549) (Staphylococcus sp.): >128 µg/mL | MIC Coagulase Negative Staphylococcus (GC 4551) (Staphylococcus sp.): >128 µg/mL | MIC Staphylococcus aureus-SMITH (GC 4543) (Staphylococcus sp.): >128 µg/mL | MIC Staphylococcus haemolyticus (GC 4546) (Staphylococcus sp.): >128 µg/mL | MIC Staphylococcus aureus (ATCC 29213) (Staphylococcus sp.): >128 µg/mL | MIC Staphylococcus aureus (GC 1131) (Staphylococcus sp.): >128 µg/mL | MIC Staphylococcus aureus (GC 3051) (Staphylococcus sp.): >128 µg/mL | MIC Staphylococcus aureus (GC 3053) (Staphylococcus sp.): >128 µg/mL | MIC Staphylococcus aureus (GC 4541) (Staphylococcus sp.): >128 µg/mL | MIC Staphylococcus aureus (GC 4542) (Staphylococcus sp.): >128 µg/mL | MIC Staphylococcus aureus-SMITH (GC 4543) (Staphylococcus sp.; strain GC 4543): >128 µg/mL | MIC Staphylococcus aureus (GC 4544) (Staphylococcus sp.): >128 µg/mL | MIC Staphylococcus aureus (GC 4545) (Staphylococcus sp.): >128 µg/mL | MIC Staphylococcus haemolyticus (GC 4546) (Staphylococcus sp.; strain GC 4546): >128 µg/mL | MIC Coagulase Negative Staphylococcus (GC 4547) (Staphylococcus sp.; strain GC 4547): >128 µg/mL | MIC Coagulase Negative Staphylococcus (GC 4548) (Staphylococcus sp.; strain GC 4548): >128 µg/mL | MIC Coagulase Negative Staphylococcus (GC 4549) (Staphylococcus sp.; strain GC 4549): >128 µg/mL | MIC Coagulase Negative Staphylococcus (GC 4551) (Staphylococcus sp.; strain GC 4551): >128 µg/mL

Source: patent publication US6914045B2, “Glycopeptide antibiotics” (Wyeth Holdings Corporation, priority 2001, dated 2005)
